Laboratory results reported in patent publication US20170360780A1, “PHARMACEUTICAL COMPOSITION COMPRISING BICYCLIC NITROGEN-CONTAINING AROMATIC HETEROCYCLIC AMIDE COMPOUND AS ACTIVE INGREDIENT” (Astellas Pharma Inc., priority 2014, published 2017).

Assays:
OPM-2 cells = test: Test Example 3: anti-tumor test on nude mice bearing OPM-2 human myeloma tumors; type: in vivo; details: OPM-2, nude mice, 8 mg/kg oral once a day, 7 days; next day of final administration
Experimental: (§1) KMS-12-BM cells (purchased) or OPM-2 cells (purchased) derived from human myeloma were prepared at 5×10^7 cells/mL of a mixed solution of PBS and Matrigel (registered trademark) in 1:1 ratio, and 0.1 mL was implanted to CAnN.Cg-Foxn1^nu/CrlCrlj mice (4-week-old male nude mice, Charles River Laboratories Japan, Inc.) under the skin on the back (5×10^6 cells/head). Dividing into groups by the tumor volume was performed when tumor cells were engrafted and the average tumor volume exceeded approximately 300 mm^3 (5 mice for each group). The test compound dissolved in 6% cyclodextrin aqueous solution (Sigma-Aldrich Co.) was orally administered by the dosage of 8 mg/kg once a day for 21 days in the test using KMS-12-BM cells, and for 7 days in the test using OPM-2 cells, respectively. 6% Cyclodextrin aqueous solution was orally administered for a solvent group (control group) once a day.
(§2) The body weight and the tumor diameter were measured twice a week, and the anti-tumor effect and the effect on the body weight were examined. For calculation of the tumor volume, the formula below was used.
(§3) [Tumor volume (mm^3)]=[major axis of tumor (mm)]×[minor axis of tumor (mm)]^2×0.5
(§4) The inhibition rate of tumor growth and the rate of tumor regression were calculated from the average value of the tumor volume according to the formula below. […]

KMS-12-BM cells [1] = test: Test Example 4: anti-tumor test on nude mice bearing KMS-12-BM human myeloma tumors; type: in vivo; details: 17 days, next day of final administration
Source text: (§5) KMS-12-BM cells and RPMI 8226 cells which are derived from human myeloma were respectively purchased from JCRB cell bank (National Institutes of Biochemical Innovation, Health and Nutrition), and ATCC. KMS-12-BM cells were implanted to CAnN.Cg-Foxn1^nu/CrlCrlj mice (4- to 5-week-old male nude mice, Charles River Laboratories Japan, Inc.), and RPMI 8226 cells to CB17/Icr-Prkdc^scid/CrlCrlj mice (4- to 5-week-old male SCID mice, Charles River Laboratories Japan, Inc.), respectively. Each of tumor cells were prepared at 5×10^7 cells/mL of a mixed solution of PBS and Matrigel (registered trademark) in 1:1 ratio, and 0.1 mL was implanted to the mice under the skin on the back (5×10^6 cells/head). Dividing into groups by the tumor volume was performed when tumor cells were engrafted under the skin and the average tumor volume exceeded approximately 150 mm^3 (5 mice for each group). The test compound dissolved in 6% cyclodextrin aqueous solution (Sigma-Aldrich Co.) was orally administered by the dosage of 8 mg/kg or 1 mg/kg once a day. 6% Cyclodextrin aqueous solution was also orally administered for the solvent group (control group) once a day. Oral administration was performed continuously for 17 days for KMS-12-BM cells, and 18 days for RPMI 8226 cells. The inhibition rate of tumor growth and the rate of tumor regression on the next day of the final administration were calculated by using the formula below.
as §3
(§6) Inhibition rate of tumor growth (%)=(1−average of tumor volume growth in each group/average of tumor volume growth in control group)×100
(§7) Rate of tumor regression (%)=(1−average tumor volume in each group on measuring day/average tumor volume in each group when dividing groups)×100

RPMI 8226 cells [2] = test: Test Example 3: anti-tumor test on SCID mice bearing RPMI 8226 human myeloma tumors; type: in vivo; details: RPMI 8226, SCID mice, 8 mg/kg oral once a day, 21 days; next day of final administration
Experimental: RPMI 8226 cells (purchased) derived from human myeloma were prepared at 5×10^7 cells/mL of a mixed solution of PBS and Matrigel (registered trademark) in 1:1 ratio, and 0.1 mL was implanted to CB17/Icr-Prkdc^scid/CrlCrlj mice (5-week-old male SCID mice, Charles River Laboratories Japan, Inc.) under the skin on the back (5×10^6 cells/head). Dividing into groups by the tumor volume was performed when tumor cells were engrafted and the average tumor volume exceeded approximately 150 mm^3 (5 mice for each group). The test compound dissolved in 6% cyclodextrin aqueous solution was orally administered by the dosage of 8 mg/kg once a day for 21 days continuously. 6% Cyclodextrin aqueous solution was orally administered for a solvent group (control group) once a day.
as §2, §3
The inhibition rate of tumor growth and the rate of tumor regression were calculated from the average value of the tumor volume according to the formula below.
Inhibition rate of tumor growth (%)=(1−average of tumor volume growth in each group/average of tumor volume growth in control group)×100 […]

RPMI 8226 cells [3] = test: Test Example 4: anti-tumor test on SCID mice bearing RPMI 8226 human myeloma tumors; type: in vivo; details: RPMI 8226, SCID mice, 18 days, next day of final administration
Source text: as §5, §3, §6, §7

KMS-12-BM cells [4] = test: Test Example 6: combination use with lenalidomide, nude mice bearing KMS-12-BM tumors; type: in vivo, human; details: for Rate of tumor regression / Inhibition rate of tumor growth: KMS-12-BM, nude mice, 14 days, next day of final administration; for Anti-tumor effect of combination use with lenalidomide versus single administration: mice bearing tumors of human myeloma, combination use of lenalidomide and compound
Experimental: KMS-12-BM cells derived from human myeloma were prepared at 5×10^7 cells/mL of a mixed solution of PBS and Matrigel (registered trademark) in 1:1 ratio, and 0.1 mL was implanted to CAnN.Cg-Foxn1^nu/CrlCrlj mice (4- to 5-week-old male nude mice, Charles River Laboratories Japan, Inc.) under the skin on the back (5×10^6 cells/head). Dividing into groups by the tumor volume was performed when tumor cells were engrafted under the skin and the average tumor volume exceeded approximately 200 mm^3. […] The test compound dissolved in 6% cyclodextrin aqueous solution was orally administered by the dosage of 8 mg/kg or 1 mg/kg once a day for 14 days continuously. Lenalidomide (MedChemExpress.) was suspended in 6% cyclodextrin aqueous solution and was orally administered by the dosage of 100 mg/kg once a day for 14 days continuously. The inhibition rate of tumor growth and the rate of tumor regression in each group on the next day of the final administration were calculated by using the formula below.
as §3, §6
Rate of tumor regression (%)=(1−average tumor volume in each group on measuring day/average tumor volume in each group when starting administration)×100
The inhibition rate of tumor growth and the rate of tumor regression in each group on the next day of the final administration is shown in Table 6.

KMS-12-BM cells [5] = test: Test Example 3: anti-tumor test on nude mice bearing KMS-12-BM human myeloma tumors; type: in vivo; details: 8 mg/kg oral once a day, 21 days, next day of final administration
Experimental: as §1, §2, §3, §4

KMS-12-BM cells [6] = test: Test Example 5: combination use with lenalidomide, nude mice bearing KMS-12-BM tumors; type: in vivo, human; details: 27 days, next day of final administration
Experimental: KMS-12-BM cells derived from human myeloma were prepared at 2.8×10^7 cells/mL of a mixed solution of PBS and Matrigel (registered trademark) in 1:1 ratio, and 0.1 mL was implanted to CAnN.Cg-Foxn1^nu/CrlCrlj mice (4-week-old male nude mice, Charles River Laboratories Japan, Inc.) under the skin on the back (2.8×10^6 cells/head). Dividing into groups by the tumor volume was performed when tumor cells were engrafted and the average tumor volume exceeded approximately 200 mm^3, and 5 mice were set for each group. The test compound dissolved in 6% cyclodextrin aqueous solution was orally administered by the dosage of 2 mg/kg once a day for 27 days. Lenalidomide (MedChemExpress.) was suspended in 6% cyclodextrin aqueous solution and was orally administered by the dosage of 100 mg/kg once a day for 27 days. The dosage of 2 mg/kg of the test compound and 100 mg/kg of lenalidomide were orally administered for a combination administered group once a day, respectively. 6% Cyclodextrin aqueous solution was orally administered for the solvent group (control group) once a day. The body weight and the tumor diameter were measured twice a week, and the anti-tumor effect and the effect on the body weight were examined. For calculation of the tumor volume, the formula below was used.
as §3
The inhibition rate of tumor growth and the rate of tumor regression were calculated from the average value of the average tumor volume according to the formula below.
as §6, §7

[7] = test compound 8 mg/kg + lenalidomide 100 mg/kg oral once a day
[8] = test compound 8 mg/kg + solvent, oral once a day
[9] = test compound 1 mg/kg + lenalidomide 100 mg/kg oral once a day
[10] = test compound 1 mg/kg + solvent, oral once a day

SMILES: COc1ccc(CN2CCC(c3ccc4[nH]c(C(=O)N5CCN(Cc6ccc(C(F)(F)F)cc6)CC5)nc4c3)CC2)cn1 [Compound A1, (5-{1-[(6-methoxypyridin-3-yl)methyl]piperidin-4-yl}-1H-benzimidazol-2-yl){4-[4-(trifluoromethyl)benzyl]piperazin-1-yl}methanone]
- Rate of tumor regression (OPM-2 cells): 17% regression
- Inhibition rate of tumor growth (KMS-12-BM cells [1]; 8 mg/kg oral once a day): 99% inhibition
- Inhibition rate of tumor growth (RPMI 8226 cells [2]): 97% inhibition
- Inhibition rate of tumor growth (RPMI 8226 cells [3]; 8 mg/kg oral once a day): 99% inhibition
- Rate of tumor regression (KMS-12-BM cells [4]; [7]): 39% regression
- Inhibition rate of tumor growth (KMS-12-BM cells [4]; [8]): 100% inhibition
- Rate of tumor regression (KMS-12-BM cells [5]): 100% regression
- Rate of tumor regression (KMS-12-BM cells [6]; test compound 2 mg/kg + lenalidomide 100 mg/kg oral once a day): 100% regression
- Rate of tumor regression (KMS-12-BM cells [6]; test compound alone 2 mg/kg oral once a day): 24% regression

SMILES: COc1ccc(CN2CCC(c3ccc4[nH]c(C(=O)N5CCN(Cc6ccc(C(F)(F)F)cc6)CC5)nc4c3)CC2)cn1 [Compound A, (5-{1-[(6-methoxypyridin-3-yl)methyl]piperidin-4-yl}-1H-benzimidazol-2-yl) {4-[4-(trifluoromethyl)benzyl]piperazin-1-yl}methanone]
- Anti-tumor effect of combination use with lenalidomide versus single administration (KMS-12-BM cells [4]): stronger anti-tumor effect than each single administration thereof

SMILES: COc1cnc(CN2CCC(c3ccc4[nH]c(C(=O)N5CCN(Cc6ccc(C(F)(F)F)cc6)CC5)nc4c3)CC2)cn1 [Compound B1, (5-{1-[(5-methoxypyrazin-2-yl)methyl]piperidin-4-yl}-1H-benzimidazol-2-yl){4-[4-(trifluoromethyl)benzyl]piperazin-1-yl}methanone]
- Rate of tumor regression (KMS-12-BM cells [1]; 8 mg/kg oral once a day): 6% regression
- Rate of tumor regression (RPMI 8226 cells [3]; 8 mg/kg oral once a day): 4% regression
- Rate of tumor regression (KMS-12-BM cells [4]; [7]): 42% regression
- Rate of tumor regression (KMS-12-BM cells [4]; [8]): 20% regression

SMILES: COc1cnc(CN2CCC(c3ccc4[nH]c(C(=O)N5CCN(Cc6ccc(C(F)(F)F)cc6)CC5)nc4c3)CC2)cn1 [Compound B, (5-{1-[(5-methoxypyrazin-2-yl)methyl]piperidin-4-yl}-1H-benzimidazol-2-yl){4-[4-(trifluoromethyl)benzyl]piperazin-1-yl}methanone]
- Anti-tumor effect of combination use with lenalidomide versus single administration (KMS-12-BM cells [4]): stronger anti-tumor effect than each single administration thereof

SMILES: CCOc1cnc(CN2CCC(c3ccc4cc(C(=O)N5CCN(Cc6ccc(C#N)cc6)CC5)n(C)c4c3)CC2)cn1 [Compound C1, 4-({4-[(6-{1-[(5-ethoxypyrazin-2-yl)methyl]piperidin-4-yl}-1-methyl-1H-indol-2-yl)carbonyl]piperazin-1-yl}methyl)benzonitrile]
- Rate of tumor regression (KMS-12-BM cells [1]; 1 mg/kg oral once a day): 68% regression
- Rate of tumor regression (RPMI 8226 cells [3]; 1 mg/kg oral once a day): 25% regression
- Rate of tumor regression (KMS-12-BM cells [4]; [9]): 64% regression
- Rate of tumor regression (KMS-12-BM cells [4]; [10]): 40% regression

SMILES: CCOc1cnc(CN2CCC(c3ccc4cc(C(=O)N5CCN(Cc6ccc(C#N)cc6)CC5)n(C)c4c3)CC2)cn1 [Compound C, 4-({4-[(6-{1-[(5-ethoxypyrazin-2-yl)methyl]piperidin-4-yl}-1-methyl-1H-indol-2-yl)carbonyl]piperazin-1-yl}methyl)benzonitrile]
- Anti-tumor effect of combination use with lenalidomide versus single administration (KMS-12-BM cells [4]): stronger anti-tumor effect than each single administration thereof

SMILES: COc1cnc(CN2CCC(c3ccc4c(c3)cc(C(=O)N3CCN(Cc5ccc(C#N)cc5)CC3)n4C)CC2)cn1 [Compound D1, 4-({4-[(5-{1-[(5-methoxypyrazin-2-yl)methyl]piperidin-4-yl}-1-methyl-1H-indol-2-yl)carbonyl]piperazin-1-yl}methyl)benzonitrile]
- Inhibition rate of tumor growth (KMS-12-BM cells [1]; 1 mg/kg oral once a day): 71% inhibition
- Inhibition rate of tumor growth (RPMI 8226 cells [3]; 1 mg/kg oral once a day): 75% inhibition
- Inhibition rate of tumor growth (KMS-12-BM cells [4]; [9]): 74% inhibition
- Inhibition rate of tumor growth (KMS-12-BM cells [4]; [10]): 61% inhibition

SMILES: COc1cnc(CN2CCC(c3ccc4c(c3)cc(C(=O)N3CCN(Cc5ccc(C#N)cc5)CC3)n4C)CC2)cn1 [Compound D, 4-({4-[(5-{1-[(5-methoxypyrazin-2-yl)methyl]piperidin-4-yl}-1-methyl-1H-indol-2-yl)carbonyl]piperazin-1-yl}methyl)benzonitrile]
- Anti-tumor effect of combination use with lenalidomide versus single administration (KMS-12-BM cells [4]): stronger anti-tumor effect than each single administration thereof

SMILES: Nc1cccc2c1CN(C1CCC(=O)NC1=O)C2=O (stereo not drawn) [Lenalidomide, lenalidomide, reference compound]
- Inhibition rate of tumor growth (KMS-12-BM cells [4]; solvent + lenalidomide 100 mg/kg oral once a day): 21% inhibition
- Inhibition rate of tumor growth (KMS-12-BM cells [6]; lenalidomide alone 100 mg/kg oral once a day): 53% inhibition
